From PubChem BioAssay (NCI)
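GI50 marks 50% less growth. TGI: total growth inhibition.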

Tests used:
Assay in all cases: NCI-60 cell line screen, 384-well format
MDA-MB-435 melanoma = tested on: MDA-MB-435 melanoma
HOP-62 NSCLC = tested on: HOP-62 NSCLC
ACHN renal = tested on: ACHN renal
OVCAR-8 ovarian = tested on: OVCAR-8 ovarian
SF-268 CNS = tested on: SF-268 CNS
SR leukemia = tested on: SR leukemia
NCI-H522 lung = tested on: NCI-H522 lung
OVCAR-4 ovarian = tested on: OVCAR-4 ovarian
K-562 leukemia = tested on: K-562 leukemia
HT29 colon = tested on: HT29 colon
SF-539 CNS = tested on: SF-539 CNS
SK-MEL-28 melanoma = tested on: SK-MEL-28 melanoma
HCT-15 colon = tested on: HCT-15 colon

`Cc1[nH]c2ccccc2c1CCNCc1ccc(/C=C/C(=O)NO)cc1` showed a GI50 (MDA-MB-435 melanoma) of 18.1 nM, a TGI (MDA-MB-435 melanoma) of 43.4 nM and a GI50 (HOP-62 NSCLC) of 13.1 nM. For the same compound, the TGI (HOP-62 NSCLC) was 64.4 nM, the GI50 (ACHN renal) was 20.3 nM and the TGI (ACHN renal) was 53.8 nM. It also gave a GI50 (OVCAR-8 ovarian) of under 10 nM, a TGI (OVCAR-8 ovarian) of 28.6 nM and a GI50 (SF-268 CNS) of 15.2 nM. It also gave a TGI (SF-268 CNS) of 39.1 nM, a GI50 (SR leukemia) of under 10 nM and a TGI (SR leukemia) of under 10 nM. For the same compound, the GI50 (NCI-H522 lung) was under 10 nM, the TGI (NCI-H522 lung) was 18.5 nM and the GI50 (OVCAR-4 ovarian) was 27.5 nM. The TGI (OVCAR-4 ovarian) was 60.9 nM, the GI50 (K-562 leukemia) was under 10 nM and the TGI (K-562 leukemia) was 14.8 nM. It also gave a GI50 (HT29 colon) of 12.5 nM, a TGI (HT29 colon) of 28.5 nM and a GI50 (SF-539 CNS) of 18.6 nM. The TGI (SF-539 CNS) was 86 nM, the GI50 (SK-MEL-28 melanoma) was 15.3 nM and the TGI (SK-MEL-28 melanoma) was 38 nM. For the same compound, the GI50 (HCT-15 colon) was 51.5 nM and the TGI (HCT-15 colon) was 257 nM.
`COCCNc1cc(NC(=O)N2CCCc3cc(CN4CCN(C)CC4=O)c(C=O)nc32)ncc1C#N` was tested, and the GI50 (MDA-MB-435 melanoma) was over 100000 nM, the TGI (MDA-MB-435 melanoma) was over 100000 nM and the GI50 (HOP-62 NSCLC) was over 100000 nM. It also gave a TGI (HOP-62 NSCLC) of over 100000 nM, a GI50 (ACHN renal) of over 100000 nM and a TGI (ACHN renal) of over 100000 nM. It also gave a GI50 (OVCAR-8 ovarian) of over 100000 nM, a TGI (OVCAR-8 ovarian) of over 100000 nM and a GI50 (SF-268 CNS) of over 100000 nM. It also gave a TGI (SF-268 CNS) of over 100000 nM, a GI50 (SR leukemia) of 3310 nM and a TGI (SR leukemia) of 10800 nM. The GI50 (NCI-H522 lung) was over 42200 nM, the TGI (NCI-H522 lung) was over 100000 nM and the GI50 (OVCAR-4 ovarian) was over 100000 nM. For the same compound, the TGI (OVCAR-4 ovarian) was over 100000 nM, the GI50 (K-562 leukemia) was 22200 nM and the TGI (K-562 leukemia) was over 100000 nM. For the same compound, the GI50 (HT29 colon) was over 100000 nM, the TGI (HT29 colon) was over 100000 nM and the GI50 (SF-539 CNS) was over 100000 nM. It also gave a TGI (SF-539 CNS) of over 100000 nM, a GI50 (SK-MEL-28 melanoma) of over 100000 nM and a TGI (SK-MEL-28 melanoma) of over 100000 nM. For the same compound, the GI50 (HCT-15 colon) was over 100000 nM and the TGI (HCT-15 colon) was over 100000 nM.
